Results from ChEMBL document CHEMBL2169871, “SIRT1 modulation as a novel approach to the treatment of diseases of aging” (J Med Chem, 2011).

Legend:
[1] = molecular target: T1, NAD-dependent protein deacetylase sirtuin-1 (Homo sapiens) (UniProt Q96EB6); assay: Activation of SIRT1 relative to control
T1 sequence (whole entry): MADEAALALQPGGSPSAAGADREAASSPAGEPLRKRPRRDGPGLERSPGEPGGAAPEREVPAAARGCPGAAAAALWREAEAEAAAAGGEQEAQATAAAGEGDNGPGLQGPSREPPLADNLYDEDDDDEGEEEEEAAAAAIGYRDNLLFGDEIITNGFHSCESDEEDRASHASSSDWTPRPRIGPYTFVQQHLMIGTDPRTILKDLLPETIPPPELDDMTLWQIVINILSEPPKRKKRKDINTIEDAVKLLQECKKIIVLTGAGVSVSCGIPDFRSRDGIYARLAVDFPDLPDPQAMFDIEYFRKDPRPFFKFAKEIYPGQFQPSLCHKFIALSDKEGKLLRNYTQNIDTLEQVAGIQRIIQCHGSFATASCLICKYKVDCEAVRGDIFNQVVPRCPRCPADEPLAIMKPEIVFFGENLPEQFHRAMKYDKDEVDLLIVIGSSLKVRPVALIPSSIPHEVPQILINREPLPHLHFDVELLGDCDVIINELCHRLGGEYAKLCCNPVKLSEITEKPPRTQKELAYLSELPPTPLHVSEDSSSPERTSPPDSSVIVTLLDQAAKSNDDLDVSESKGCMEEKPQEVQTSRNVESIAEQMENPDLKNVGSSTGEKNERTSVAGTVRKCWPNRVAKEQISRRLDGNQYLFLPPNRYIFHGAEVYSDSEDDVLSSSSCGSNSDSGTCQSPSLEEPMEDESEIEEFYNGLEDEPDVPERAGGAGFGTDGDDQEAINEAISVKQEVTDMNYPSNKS

[2] = molecular target: T2, NAD-dependent protein deacetylase sirtuin-1 (Homo sapiens, UniProt Q96EB6); assay: Activation of SIRT1
T2 sequence (Q96EB6 whole entry): T1 sequence (whole entry)

[3] = molecular target: T2, NAD-dependent protein deacetylase sirtuin-1; assay: Inhibition of SIRT1
[4] = molecular target: T3, NAD-dependent protein deacetylase sirtuin-2 (Homo sapiens, UniProt Q8IXJ6); assay: Inhibition of SIRT2
T3 sequence (Q8IXJ6 whole entry): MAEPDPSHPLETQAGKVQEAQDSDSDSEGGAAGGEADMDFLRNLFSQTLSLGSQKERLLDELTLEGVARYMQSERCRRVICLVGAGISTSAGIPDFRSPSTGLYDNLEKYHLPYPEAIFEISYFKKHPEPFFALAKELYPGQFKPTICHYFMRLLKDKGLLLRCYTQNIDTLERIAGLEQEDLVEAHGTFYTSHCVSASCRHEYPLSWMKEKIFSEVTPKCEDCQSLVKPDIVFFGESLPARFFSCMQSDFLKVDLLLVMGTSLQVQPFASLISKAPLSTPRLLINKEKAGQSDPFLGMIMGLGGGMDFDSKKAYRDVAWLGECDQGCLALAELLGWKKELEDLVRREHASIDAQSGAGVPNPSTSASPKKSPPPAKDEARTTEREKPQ

[5] = molecular target: T4, NAD-dependent protein deacetylase sirtuin-3, mitochondrial (Homo sapiens, UniProt Q9NTG7); assay: Inhibition of SIRT3
T4 sequence (Q9NTG7 whole entry): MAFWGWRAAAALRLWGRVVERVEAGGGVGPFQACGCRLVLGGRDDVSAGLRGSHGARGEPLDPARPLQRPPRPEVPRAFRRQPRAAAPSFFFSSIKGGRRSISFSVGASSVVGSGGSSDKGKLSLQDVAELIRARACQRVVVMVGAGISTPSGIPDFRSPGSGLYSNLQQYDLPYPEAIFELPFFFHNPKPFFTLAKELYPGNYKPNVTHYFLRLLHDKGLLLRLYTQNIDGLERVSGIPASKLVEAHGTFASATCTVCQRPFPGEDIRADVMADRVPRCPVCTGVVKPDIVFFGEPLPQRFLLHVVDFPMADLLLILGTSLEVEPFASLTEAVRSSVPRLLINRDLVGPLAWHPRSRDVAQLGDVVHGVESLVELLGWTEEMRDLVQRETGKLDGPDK

Mus musculus [6] = assay: Increase of SIRT1 mRNA expression in mouse brain at 25 mg/kg qd for 7 days by RT-PCR analysis; type: functional
Mus musculus [7] = assay: Increase of SIRT1 mRNA expression in mouse brain at 12.5 mg/kg qd for 7 days by RT-PCR analysis; type: functional
Mus musculus [8] = assay: Increase of SIRT1 mRNA expression in mouse soleus muscle at 12.5 to 25 mg/kg qd for 7 days by RT-PCR analysis; type: functional; settings: dose mg/kg 12.5-25
[9] = Half life in mouse; type: ADME, organism-based; settings: in vivo

| Compound | Emax [1] [%] | EC50 [2] [µM] | IC50 [3] [µM] | further results |
| --- | --- | --- | --- | --- |
| COc1ccc(C(=O)Nc2ccccc2-c2nc3ncccc3o2)cc1OC | 170 | 0.9 |  |  |
| O=C1c2cccc3cccc(c23)C(=O)N1CCNCCCNCCCNCCN1C(=O)c2cccc3cccc(c23)C1=O |  |  | 43 |  |
| O=C(Nc1nccs1)c1cccc2[nH]c(-c3cccc(C(F)(F)F)c3)nc12 | > 200 | < 1 |  |  |
| O=C(Nc1ccccc1-c1nc2ccccc2[nH]1)c1cnc2ccccc2n1 | 253 | 0.3 |  |  |
| NC(=O)c1ccccc1Nc1ccccc1 [ANILINOBENZAMIDE] |  |  | 17 |  |
| O=C1NC(=S)NC(=O)C1=Cc1cc2ccccc2[nH]1 |  |  | 6 | IC50 [4]: 20 µM |
| O=C(Nc1ccc(CN2CCNCC2)cc1-c1nc2ccccc2[nH]1)c1cnc2ccccc2n1 | 820 | 0.4 |  |  |
| O=c1[nH]c(=S)[nH]c(-c2ccc(Br)cc2)c1Cc1c(O)ccc2ccccc12 |  |  | 13 |  |
| CC(=S)NCCCC[C@H](NC(=O)OCc1ccccc1)C(=O)Nc1ccccc1 |  |  |  | IC50 [5]: > 100 µM |
| CN(C)c1cccc(C(=O)Nc2ccccc2-c2nc3ncccc3o2)c1 | 209 | 4.4 |  |  |
| O=C(Nc1ccccc1-c1nc2cccnc2s1)c1cc(NC[C@@H](O)CO)nc(-c2ccccc2)n1 |  | < 0.25 |  |  |
| COc1ccc(C(=O)Nc2cccc(-c3nc4ncccc4o3)c2)cc1OC | 240 | 6 |  |  |
| Cc1ccc(C(=O)Nc2ccc(S(=O)(=O)O)c3cc(S(=O)(=O)O)cc(S(=O)(=O)O)c23)cc1NC(=O)c1cccc(NC(=O)Nc2cccc(C(=O)Nc3cc(C(=O)Nc4ccc(S(=O)(=O)O)c5cc(S(=O)(=O)O)cc(S(=O)(=O)O)c45)ccc3C)c2)c1 [SURAMIN HEXASODIUM] |  |  |  | IC50 [4]: 1.2 µM |
| O=C(Nc1ccccc1-c1nc2cccnc2s1)c1cc(N2CCNCC2)nc(-c2ccccc2)n1 |  | < 0.25 |  |  |
| O=C1NC(=S)NC(=O)C1=Cc1cccc2ccccc12 |  |  | 13 | IC50 [4]: 9 µM |
| CN(C)c1cccc(C(=O)Nc2cccc(-c3nc4ncccc4o3)c2)c1 | 207 | 25 |  |  |
| Cc1ccc2[nH]c(=O)c(C=C3C(=O)NC(=S)NC3=O)cc2c1 |  |  | 13 | IC50 [4]: 11 µM |
| CCOC(=O)CC(=O)NCCCC[C@H](NC(=O)OCc1ccccc1)C(=O)Nc1ccccc1 |  |  | 4 | IC50 [4]: 65 µM; IC50 [5]: > 300 µM |
| O=c1c(O)c(-c2ccc(O)c(O)c2)oc2cc(O)cc(O)c12 [QUERCETIN] |  |  |  | Activity (Mus musculus [6]): 100%; Activity (Mus musculus [7]): 50%; Activity (Mus musculus [8]): 200% |
| O=C1Nc2c(ccc(Cl)c2Cl)/C1=C/c1cc(Br)c(O)c(Br)c1 |  |  | 40 | IC50 [4]: 28 µM |
| O=C(Nc1ccccc1-c1nc2cccnc2s1)c1cc(N2CCOCC2)nc(-c2ccccc2)n1 |  | < 0.25 |  |  |
| NC(=O)C1CCCc2c1[nH]c1ccc(Cl)cc21 (configuration not stated) |  |  |  | half-life [9]: 3.23 h |
